For assay [1], the target named is Adenosine receptor A2a (Homo sapiens, UniProt P29274).
The target in assay [2] is T1, Adenosine receptor A3 (Homo sapiens, UniProt P0DMS8).
T1 sequence (P0DMS8 whole entry): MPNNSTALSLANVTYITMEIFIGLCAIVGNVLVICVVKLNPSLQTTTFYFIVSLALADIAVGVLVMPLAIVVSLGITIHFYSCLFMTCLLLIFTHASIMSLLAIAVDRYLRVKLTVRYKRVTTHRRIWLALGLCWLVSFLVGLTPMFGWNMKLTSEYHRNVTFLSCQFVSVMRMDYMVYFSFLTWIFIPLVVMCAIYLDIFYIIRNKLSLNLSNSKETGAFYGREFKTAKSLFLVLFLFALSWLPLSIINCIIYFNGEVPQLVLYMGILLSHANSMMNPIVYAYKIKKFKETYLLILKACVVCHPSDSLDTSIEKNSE

In assay [3] the target is T2, Alpha-2B adrenergic receptor (Homo sapiens, UniProt P18089).
T2 sequence (P18089 whole entry): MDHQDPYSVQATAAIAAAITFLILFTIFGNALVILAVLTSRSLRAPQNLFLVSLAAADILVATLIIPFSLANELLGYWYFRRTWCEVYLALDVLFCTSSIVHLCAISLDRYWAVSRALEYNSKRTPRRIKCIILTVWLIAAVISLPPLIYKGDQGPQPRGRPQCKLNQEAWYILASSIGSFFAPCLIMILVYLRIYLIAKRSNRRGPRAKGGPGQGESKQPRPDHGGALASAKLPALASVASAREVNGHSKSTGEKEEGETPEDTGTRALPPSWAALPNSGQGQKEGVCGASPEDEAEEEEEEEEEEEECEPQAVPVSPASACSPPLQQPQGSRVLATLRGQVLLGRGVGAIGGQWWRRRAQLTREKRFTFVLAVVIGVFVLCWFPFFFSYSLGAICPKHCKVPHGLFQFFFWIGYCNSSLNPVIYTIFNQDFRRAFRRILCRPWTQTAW

Assay [4] has as its target T3, Alpha-2C adrenergic receptor (Homo sapiens, UniProt P18825).
T3 sequence (P18825 whole entry): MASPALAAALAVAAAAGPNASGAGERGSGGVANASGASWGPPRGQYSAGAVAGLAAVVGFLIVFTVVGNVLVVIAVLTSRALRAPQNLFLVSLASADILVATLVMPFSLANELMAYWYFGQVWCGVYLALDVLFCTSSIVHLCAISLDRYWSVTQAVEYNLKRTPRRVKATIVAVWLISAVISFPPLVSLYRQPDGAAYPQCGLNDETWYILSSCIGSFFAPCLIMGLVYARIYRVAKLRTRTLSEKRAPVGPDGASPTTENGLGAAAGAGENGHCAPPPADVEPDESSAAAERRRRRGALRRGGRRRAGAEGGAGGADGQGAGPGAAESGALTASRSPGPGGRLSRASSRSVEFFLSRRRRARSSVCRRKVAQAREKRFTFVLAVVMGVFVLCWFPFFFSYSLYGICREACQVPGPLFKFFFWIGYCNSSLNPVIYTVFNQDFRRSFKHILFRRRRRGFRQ
It is filed as functional.

In assay [5] the target is Beta-2 adrenergic receptor (Homo sapiens, UniProt P07550).
Assay [6] concerns the target T4, Type-1 angiotensin II receptor (Homo sapiens, UniProt P30556).
T4 sequence (P30556 whole entry): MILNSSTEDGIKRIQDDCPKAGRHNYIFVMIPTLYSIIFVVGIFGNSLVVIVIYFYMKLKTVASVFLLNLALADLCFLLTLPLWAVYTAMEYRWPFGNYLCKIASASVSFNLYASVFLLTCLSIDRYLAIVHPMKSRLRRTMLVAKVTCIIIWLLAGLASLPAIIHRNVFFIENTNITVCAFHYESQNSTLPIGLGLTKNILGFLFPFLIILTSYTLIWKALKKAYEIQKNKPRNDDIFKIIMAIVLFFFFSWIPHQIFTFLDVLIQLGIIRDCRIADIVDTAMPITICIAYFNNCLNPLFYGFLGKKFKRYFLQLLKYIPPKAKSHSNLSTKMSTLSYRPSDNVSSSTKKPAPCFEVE

For assay [7], the target named is T5, B2 bradykinin receptor (Homo sapiens, UniProt P30411).
T5 sequence (P30411 whole entry): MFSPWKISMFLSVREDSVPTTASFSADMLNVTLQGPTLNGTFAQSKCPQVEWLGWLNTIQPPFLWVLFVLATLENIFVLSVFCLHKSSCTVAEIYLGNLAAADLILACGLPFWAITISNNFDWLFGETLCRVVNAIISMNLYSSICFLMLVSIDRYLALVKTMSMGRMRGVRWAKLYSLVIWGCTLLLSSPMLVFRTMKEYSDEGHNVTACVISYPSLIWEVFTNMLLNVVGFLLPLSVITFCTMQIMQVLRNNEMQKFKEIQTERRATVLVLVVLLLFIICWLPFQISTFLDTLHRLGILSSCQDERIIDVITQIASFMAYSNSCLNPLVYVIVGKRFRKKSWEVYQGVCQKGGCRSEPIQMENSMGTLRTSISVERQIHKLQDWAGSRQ

Assay [8] deals with Neuronal acetylcholine receptor subunit alpha-4 (Homo sapiens, UniProt P43681).
The target of assay [9] is T6, Gamma-aminobutyric acid receptor subunit alpha-1 (Rattus norvegicus, UniProt P62813).
Assay [10] concerns the target T6, Gamma-aminobutyric acid receptor subunit alpha-1. It is filed as functional.
Assay [11] has as its target Histamine H1 receptor (Homo sapiens, UniProt P35367).
The target in assay [12] is T7, 5-hydroxytryptamine receptor 2C (Homo sapiens, UniProt P28335).
T7 sequence (P28335 whole entry): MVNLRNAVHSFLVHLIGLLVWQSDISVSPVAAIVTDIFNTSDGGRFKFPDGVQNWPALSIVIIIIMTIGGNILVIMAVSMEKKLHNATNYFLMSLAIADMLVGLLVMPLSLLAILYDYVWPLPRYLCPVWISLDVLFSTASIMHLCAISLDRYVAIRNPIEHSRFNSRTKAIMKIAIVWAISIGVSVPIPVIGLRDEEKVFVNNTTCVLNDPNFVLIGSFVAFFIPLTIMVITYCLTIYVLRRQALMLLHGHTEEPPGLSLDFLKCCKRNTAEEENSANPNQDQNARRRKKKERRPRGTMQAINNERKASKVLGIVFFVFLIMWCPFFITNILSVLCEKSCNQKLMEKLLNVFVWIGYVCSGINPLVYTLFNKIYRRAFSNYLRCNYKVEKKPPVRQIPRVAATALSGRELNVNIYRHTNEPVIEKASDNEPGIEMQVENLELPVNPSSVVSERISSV

The target in assay [13] is Motilin receptor (Homo sapiens, UniProt O43193).
For assay [14], the target named is Kappa-type opioid receptor (Homo sapiens, UniProt P41145).

The results in this text go back to ChEMBL document CHEMBL5291721, “A preclinical secondary pharmacology resource illuminates target-adverse drug reaction associations of marketed drugs” (Nat Commun, 2023).

For orientation: AC50 means the concentration at which the activity in the assay is half-maximal. Read a high AC50 as activity only at high concentration.

Bounds are passed on as bounds.
Note: assay procedure not described here.

Sequence of Motilin receptor (O43193 whole entry): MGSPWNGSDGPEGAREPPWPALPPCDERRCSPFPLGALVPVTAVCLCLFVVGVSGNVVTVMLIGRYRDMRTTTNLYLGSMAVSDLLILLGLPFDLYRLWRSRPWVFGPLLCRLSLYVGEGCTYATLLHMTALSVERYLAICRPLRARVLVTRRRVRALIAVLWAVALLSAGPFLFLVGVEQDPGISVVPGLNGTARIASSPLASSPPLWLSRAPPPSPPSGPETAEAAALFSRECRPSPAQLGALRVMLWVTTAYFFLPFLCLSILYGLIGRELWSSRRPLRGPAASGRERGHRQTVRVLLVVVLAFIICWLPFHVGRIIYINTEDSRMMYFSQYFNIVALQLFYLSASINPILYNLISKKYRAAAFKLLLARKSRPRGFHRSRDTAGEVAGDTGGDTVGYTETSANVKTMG
Sequence of Histamine H1 receptor (P35367 whole entry): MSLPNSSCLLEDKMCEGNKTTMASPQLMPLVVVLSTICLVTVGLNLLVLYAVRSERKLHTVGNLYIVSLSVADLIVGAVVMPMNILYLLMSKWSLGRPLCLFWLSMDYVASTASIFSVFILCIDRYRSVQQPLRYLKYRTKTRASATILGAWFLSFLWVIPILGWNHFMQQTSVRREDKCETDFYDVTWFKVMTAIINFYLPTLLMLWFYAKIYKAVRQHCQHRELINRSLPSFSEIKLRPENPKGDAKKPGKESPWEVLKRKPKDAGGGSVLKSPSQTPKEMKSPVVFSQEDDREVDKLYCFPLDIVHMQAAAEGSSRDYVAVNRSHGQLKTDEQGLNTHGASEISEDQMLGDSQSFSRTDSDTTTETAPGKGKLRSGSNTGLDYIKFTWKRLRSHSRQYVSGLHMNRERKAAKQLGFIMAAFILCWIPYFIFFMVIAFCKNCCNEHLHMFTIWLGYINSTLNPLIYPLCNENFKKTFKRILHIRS
T6 sequence (P62813 whole entry): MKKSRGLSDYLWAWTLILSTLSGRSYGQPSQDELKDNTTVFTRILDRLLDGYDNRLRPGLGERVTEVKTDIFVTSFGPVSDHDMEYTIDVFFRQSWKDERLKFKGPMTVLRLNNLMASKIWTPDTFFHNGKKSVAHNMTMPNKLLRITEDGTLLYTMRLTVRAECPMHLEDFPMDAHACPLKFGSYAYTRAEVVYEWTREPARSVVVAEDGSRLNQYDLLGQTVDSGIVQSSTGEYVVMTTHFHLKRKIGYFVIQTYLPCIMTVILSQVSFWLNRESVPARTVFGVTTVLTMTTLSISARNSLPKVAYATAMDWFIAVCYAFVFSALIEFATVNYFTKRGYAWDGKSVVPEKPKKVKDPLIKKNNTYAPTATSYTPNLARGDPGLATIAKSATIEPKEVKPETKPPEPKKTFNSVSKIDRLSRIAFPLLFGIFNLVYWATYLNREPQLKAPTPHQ
Sequence of Adenosine receptor A2a (P29274 whole entry): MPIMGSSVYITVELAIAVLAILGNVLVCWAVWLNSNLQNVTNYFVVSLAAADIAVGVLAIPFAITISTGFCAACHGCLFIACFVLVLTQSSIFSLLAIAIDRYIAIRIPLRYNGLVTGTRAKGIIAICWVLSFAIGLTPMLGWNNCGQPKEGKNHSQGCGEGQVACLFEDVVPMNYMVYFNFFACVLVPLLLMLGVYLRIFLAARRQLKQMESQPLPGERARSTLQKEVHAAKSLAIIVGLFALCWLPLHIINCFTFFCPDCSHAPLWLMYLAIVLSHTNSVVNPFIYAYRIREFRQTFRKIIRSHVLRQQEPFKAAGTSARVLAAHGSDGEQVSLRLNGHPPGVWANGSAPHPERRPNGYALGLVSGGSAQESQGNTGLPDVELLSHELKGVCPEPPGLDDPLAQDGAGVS
Sequence of Kappa-type opioid receptor (P41145 whole entry): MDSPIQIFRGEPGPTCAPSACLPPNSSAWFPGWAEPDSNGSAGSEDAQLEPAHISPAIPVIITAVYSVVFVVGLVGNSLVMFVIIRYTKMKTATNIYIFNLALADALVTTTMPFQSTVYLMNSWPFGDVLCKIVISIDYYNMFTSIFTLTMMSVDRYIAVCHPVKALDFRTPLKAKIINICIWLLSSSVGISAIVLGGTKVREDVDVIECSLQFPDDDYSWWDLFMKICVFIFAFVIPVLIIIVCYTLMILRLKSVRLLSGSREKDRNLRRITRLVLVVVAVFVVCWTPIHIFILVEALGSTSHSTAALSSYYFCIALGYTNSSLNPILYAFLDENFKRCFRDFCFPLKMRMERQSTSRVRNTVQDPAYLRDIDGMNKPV
Sequence of Neuronal acetylcholine receptor subunit alpha-4 (P43681 whole entry): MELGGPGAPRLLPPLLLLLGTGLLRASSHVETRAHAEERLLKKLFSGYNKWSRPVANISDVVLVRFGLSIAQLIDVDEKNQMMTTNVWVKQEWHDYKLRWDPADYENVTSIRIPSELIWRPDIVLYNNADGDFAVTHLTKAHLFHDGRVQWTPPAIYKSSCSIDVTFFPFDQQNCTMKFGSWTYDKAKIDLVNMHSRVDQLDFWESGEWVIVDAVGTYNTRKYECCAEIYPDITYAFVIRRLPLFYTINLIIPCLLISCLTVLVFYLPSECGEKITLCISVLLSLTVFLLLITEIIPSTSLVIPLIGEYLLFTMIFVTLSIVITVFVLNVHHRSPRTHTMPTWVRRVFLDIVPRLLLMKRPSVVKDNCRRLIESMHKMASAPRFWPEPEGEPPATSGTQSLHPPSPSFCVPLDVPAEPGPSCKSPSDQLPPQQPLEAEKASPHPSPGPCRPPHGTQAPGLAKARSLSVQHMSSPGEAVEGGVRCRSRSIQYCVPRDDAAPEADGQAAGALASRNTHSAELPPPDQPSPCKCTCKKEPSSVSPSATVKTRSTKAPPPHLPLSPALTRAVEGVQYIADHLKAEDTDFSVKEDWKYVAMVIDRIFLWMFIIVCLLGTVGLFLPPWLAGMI
Sequence of Beta-2 adrenergic receptor (P07550 whole entry): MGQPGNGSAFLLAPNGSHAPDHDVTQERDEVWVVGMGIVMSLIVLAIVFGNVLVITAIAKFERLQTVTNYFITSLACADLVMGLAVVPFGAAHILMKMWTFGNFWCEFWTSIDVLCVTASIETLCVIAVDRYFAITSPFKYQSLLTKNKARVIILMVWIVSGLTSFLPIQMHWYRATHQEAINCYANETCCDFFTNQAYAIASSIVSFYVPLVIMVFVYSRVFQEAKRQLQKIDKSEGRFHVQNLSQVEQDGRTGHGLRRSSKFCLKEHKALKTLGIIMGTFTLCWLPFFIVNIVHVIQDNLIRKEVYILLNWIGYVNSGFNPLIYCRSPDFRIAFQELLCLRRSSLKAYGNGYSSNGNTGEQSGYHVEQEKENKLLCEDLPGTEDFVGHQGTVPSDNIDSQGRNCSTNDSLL

Consider `O=C(O)c1ccccc1Nc1cc(Cl)ccc1C(=O)O` [LOBENZARIT], for which the concentration at half-maximal activity (AC50) in assay [1], in [2], in assay [3], in assay [4], in [5] and in [6] was over 30 µM in each case. For the same molecule, the half-maximal activity concentration (AC50) in [7], in assay [8], in [9], in [10], in assay [11] and in assay [12] was over 30 µM throughout. In addition, the concentration at half-maximal activity (AC50) in [13] and in assay [14] was over 30 µM each time.
As to `CC(=O)SC[C@@H](C)C(=O)N1CCC[C@H]1C(=O)N[C@@H](Cc1ccccc1)C(=O)O`, the half-maximal activity concentration (AC50) in assay [1], in assay [2], in [3], in assay [4], in assay [5] and in assay [6] was over 30 µM throughout. For the same molecule, the concentration at half-maximal activity (AC50) in assay [7], in assay [8], in assay [9], in [10], in assay [11] and in assay [12] was over 30 µM throughout. Moreover, the half-maximal activity concentration (AC50) is over 30 µM in assay [13] and 21 µM in [14].
`CCN(CC)CCN1C(=O)CN=C(c2ccccc2F)c2cc(Cl)ccc21` [FLURAZEPAM]: the concentration at half-maximal activity (AC50) was over 30 µM in assay [1]; over 30 µM in assay [2]; over 10 µM in assay [3]; over 10 µM in assay [4]; over 10 µM in [5]; over 30 µM in [6]. For the same molecule, the AC50 was over 30 µM in [7]; over 10 µM in assay [8]; over 10 µM in assay [9]; 0.0512 µM in assay [10]; over 10 µM in assay [11]; over 30 µM in assay [12]. Moreover, the half-maximal activity concentration (AC50) was over 10 µM in assay [13] and 0.21 µM in assay [14].
As for `C/C(=C\C(=O)OCCCCCCCCC(=O)O)C[C@@H]1OC[C@H](C[C@@H]2O[C@H]2[C@@H](C)[C@H](C)O)[C@@H](O)[C@H]1O` [MUPIROCIN], the AC50 in [1], in assay [2], in assay [3], in [4], in assay [5] and in assay [6] was over 10 µM each time. Also, the concentration at half-maximal activity (AC50) in assay [7] was over 10 µM; in assay [8], over 10 µM; in [9], over 10 µM; in assay [10], over 10 µM; in [11], over 10 µM; in [12], over 30 µM. Moreover, the half-maximal activity concentration (AC50) in [13] and in [14] was over 10 µM in each case.
On to `COc1ccc2nc3cc(Cl)ccc3c(Nc3cc(CN4CCCC4)c(O)c(CN4CCCC4)c3)c2n1` [PYRONARIDINE], for which the AC50 in assay [1] is over 30 µM; in [2], 15 µM; in assay [3], over 30 µM; in assay [4], 21 µM; in assay [5], over 30 µM; in [6], over 30 µM. Moreover, the AC50 in assay [7] was over 30 µM; in assay [8], 26 µM; in assay [9], over 30 µM; in [10], over 30 µM; in [11], 21 µM; in [12] it was over 30 µM. In addition, the AC50 in assay [13] was over 30 µM; in [14], 15 µM.
Consider `CCCCCC(=O)O[C@]1(C(C)=O)CC[C@H]2[C@@H]3CCC4=CC(=O)CC[C@]4(C)[C@H]3CC[C@@]21C` [HYDROXYPROGESTERONE CAPROATE], for which the AC50 is over 30 µM in [1]; 18.4 µM in [2]; over 30 µM in [3]; over 30 µM in assay [4]; over 30 µM in assay [5]; over 30 µM in assay [6]. For the same molecule, the half-maximal activity concentration (AC50) in assay [7] was over 9.99 µM; in assay [8] it was over 30 µM; in [9] it was over 30 µM; in [10], over 30 µM; in assay [11], over 30 µM; in assay [12], over 30 µM. Further, the half-maximal activity concentration (AC50) in assay [13] is 28.1 µM; in assay [14], over 30 µM.
For `CC(=O)[C@@]1(O)CC[C@H]2[C@@H]3C=C(Cl)C4=CC(=O)[C@@H]5C[C@@H]5[C@]4(C)[C@H]3CC[C@@]21C` [CYPROTERONE], the AC50 in assay [1] was over 10 µM; in assay [2], over 10 µM; in assay [3] it was over 10 µM; in assay [4], over 10 µM; in [5], over 10 µM; in assay [6] it was over 30 µM. Further, the half-maximal activity concentration (AC50) in [7] was over 10 µM; in assay [8], over 10 µM; in assay [9], over 10 µM; in assay [10], over 10 µM; in assay [11], over 10 µM; in assay [12], over 30 µM. For the same molecule, the AC50 in [13] was over 10 µM; in [14], 5.32 µM.
With `CC(=O)OCC(=O)[C@@]1(O)[C@H](C)C[C@H]2[C@@H]3CCC4=CC(=O)C=C[C@]4(C)[C@@]3(F)[C@@H](O)C[C@@]21C` [DEXAMETHASONE ACETATE], the half-maximal activity concentration (AC50) in assay [1] was over 30 µM; in assay [2] it was over 30 µM; in assay [3], over 10 µM; in assay [4], over 10 µM; in [5], over 10 µM; in assay [6], over 30 µM. In addition, the AC50 in assay [7] is over 30 µM; in assay [8], over 10 µM; in assay [9], over 10 µM; in assay [10], over 10 µM; in assay [11] it was over 10 µM; in [12], over 30 µM. Moreover, the half-maximal activity concentration (AC50) in assay [13] and in assay [14] was over 10 µM in each case.
